Laboratory results from patent US20240368106A1, “HYDROXY AND ALKOXY COUMARINS AS MODULATORS OF POLRMT” (Pretzel Therapeutics, Inc., priority 2021, published 2024).

Target: POLRMT (Homo sapiens (Human), UniProt O00411)
Assay: homogeneous TR-FRET assay of mitochondrial transcription (inhibition of POLRMT)
Format: biochemical
Conditions: 7.5 nM POLRMT, 15 nM TFB2M, 30 nM TFAM, 0.5 nM DNA template, 500 μM NTPs, 37° C., 60 minutes
Procedure: The inhibitory activity of the compounds of the present invention against POLRMT were determined by assays based on Bergbrede, T., et al., “An adaptable high-throughput technology enabling the identification of specific transcription modulators,” SLAC Discov., 22, 378-386 (2017).
The ability of some compounds of the present invention to inhibit POLRMT were determined in a homogeneous TR-FRET Assay using high-throughput screening in a 384-well plate format. This method is used to monitor the activity of mitochondrial transcription through measurement of its product, a 407 bp long RNA transcript. Detection of the product is facilitated by hybridization of two DNA-oligonucleotide probes to specific and adjacent sequences within the RNA product sequence. Upon annealing of the probes, two fluorophores are coupled directly to an acceptor nucleotide probe (ATT0647, 5′), or introduced via a coupled streptavidin with a biotinylated donor nucleotide probe (Europium cryptate) that is brought into sufficient proximity to serve as a fluorescence-donor-acceptor pair. Thus, a FRET signal at 665 nm is generated upon excitation at 340 nm.
Proteins used as transcription factors (POLRMT: NP_005026.3, TFAM: NP_003192.1, TFB2M: NP_071761.1) are diluted from their stocks to working concentrations of 1 μM, 20 μM and 4 μM respectively, in a dilution buffer containing 20 mM Tris-HCl (pH 8.0), 200 mM NaCl, 10% (v/v) glycerol, 1 mM Dithiothreitol (DTT), 0.5 mM EDTA.
DNA template is a pUC18 plasmid with the mitochondrial light strand promotor sequence (1-477) cloned between HindIII and BamHI sites. The DNA template is restriction linearized proximal to the promotor 3′-end (pUC-LSP). The reaction mixture (10 uL) containing 7.5 nM POLRMT, 15 nM of TFB2M, 30 nM of TFAM, 0.5 nM of DNA template and 500 μM nucleotide triphosphate mix (NTPs) in a reaction buffer (containing 10 mM Tris-HCl (pH 7.5), 10 mM MgCl2, 40 mM NaCl, 10 mM DTT, 0.005% (w/v) Tween-20, 160 units/ml Rnase inhibitor and 0.1 mg/mL BSA) are dispensed to compounds in microplates, using a Thermo Multidrop® dispenser, and incubated at 37° C. in a VWR INCU-Line incubator for 60 minutes after mixing. No nucleotide triphosphate mix is added to negative control samples. Microplates with compounds to be tested in the assay are prepared from 10 mM compound stocks in 100% DMSO, equal amounts of DMSO without any compound are added to positive control and negative control samples.
During the incubation, a mix of the detection reagents is prepared in a buffer such that the enzymatic reaction is terminated due to chelating of Mg-ions and increased ionic strength, containing 50 mM Tris-HCl (pH 7.5), 700 mM NaCl, 20 mM EDTA, and 0.010% (w/v) Tween-20. Europium-streptavidin is pre-incubated with a 200-fold molar excess of a random sequence oligonucleotide to block unspecific binding of oligo, for two hours at ambient temperature in the dark. Afterwards, the blocked Europium-streptavidin is kept on ice until use.
At the end of the enzymatic reaction time, 5 μL detection oligo mix in the detection buffer is added, and assay plates are mixed and kept at ambient temperature for one hour, protected from light. The concentration of the Acceptor nucleotide oligo (e.g., ATTO647N-5′-[…]-3′) and Donor nucleotide oligo (e.g., bio-5′-AACACATCTCT(-bio)GCCAAACCCCA-bio-3′) in each assay well is 1 nM, and 3 nM, respectively.
After incubation with oligo mix, 5 μL of pre-blocked Europium-streptavidin reagent is dispensed to each assay well, assay plates are again mixed and kept at ambient temperature for one hour, protected from light.
The generated signal is measured with BMG Pherastar microtiter plate reader with a TRF light unit, using excitation at 340 nm, an integration time of 200 μs, and a delay time of 100 μs, before detection at 620 nm and 665 nm. The ratio of donor- and acceptor-fluorescence is used as a measure of the generated transcript product (i.e. enzymatic activity).

Chain of POLRMT (O00411 42-1230): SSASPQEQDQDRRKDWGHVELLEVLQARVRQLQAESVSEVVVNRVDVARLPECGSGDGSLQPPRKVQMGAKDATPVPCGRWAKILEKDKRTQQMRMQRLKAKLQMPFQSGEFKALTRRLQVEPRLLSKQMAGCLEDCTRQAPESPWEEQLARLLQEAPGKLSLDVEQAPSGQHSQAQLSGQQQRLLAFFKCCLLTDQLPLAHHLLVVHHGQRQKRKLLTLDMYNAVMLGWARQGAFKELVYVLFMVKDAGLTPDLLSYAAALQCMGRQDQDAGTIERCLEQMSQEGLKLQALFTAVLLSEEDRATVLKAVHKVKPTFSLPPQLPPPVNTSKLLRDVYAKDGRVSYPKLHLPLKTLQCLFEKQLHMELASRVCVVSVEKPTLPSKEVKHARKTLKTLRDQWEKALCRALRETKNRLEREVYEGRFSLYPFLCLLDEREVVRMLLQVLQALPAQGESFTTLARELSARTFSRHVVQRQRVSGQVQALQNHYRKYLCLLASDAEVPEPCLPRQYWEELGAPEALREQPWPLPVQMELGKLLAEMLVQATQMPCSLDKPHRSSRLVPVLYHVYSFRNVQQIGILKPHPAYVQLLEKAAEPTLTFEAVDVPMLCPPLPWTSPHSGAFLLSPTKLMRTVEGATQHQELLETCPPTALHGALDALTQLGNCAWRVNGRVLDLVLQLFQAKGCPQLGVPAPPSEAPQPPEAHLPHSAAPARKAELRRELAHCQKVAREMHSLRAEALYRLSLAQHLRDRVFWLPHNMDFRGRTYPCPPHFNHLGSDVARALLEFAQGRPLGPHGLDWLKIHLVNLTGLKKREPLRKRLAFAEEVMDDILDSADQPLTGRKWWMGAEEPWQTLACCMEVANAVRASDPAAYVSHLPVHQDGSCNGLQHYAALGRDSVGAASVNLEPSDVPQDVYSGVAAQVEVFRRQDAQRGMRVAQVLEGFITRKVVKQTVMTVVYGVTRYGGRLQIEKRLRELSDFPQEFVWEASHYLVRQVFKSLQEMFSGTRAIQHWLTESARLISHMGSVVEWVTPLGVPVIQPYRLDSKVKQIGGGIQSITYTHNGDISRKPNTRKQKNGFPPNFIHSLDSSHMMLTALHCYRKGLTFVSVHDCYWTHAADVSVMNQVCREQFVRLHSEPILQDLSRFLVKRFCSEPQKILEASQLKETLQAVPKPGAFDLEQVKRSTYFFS

| SMILES | IC50 [nM] |
| --- | --- |
| CNC(=O)C(COC)Oc1ccc2c(-c3ccccc3Cl)cc(=O)oc2c1 (single isomer, unassigned) [Example 91, 2-((4-(2-chlorophenyl)-2-oxo-2H-chromen-7-yl)oxy)-3-methoxy-N-methylpropanamide] | 14000 |
| CNC(=O)C(COC)Oc1ccc2c(-c3ccccc3Cl)cc(=O)oc2c1 (single isomer, unassigned) [Example 92, 2-((4-(2-chlorophenyl)-2-oxo-2H-chromen-7-yl)oxy)-3-methoxy-N-methylpropanamide] | 400 |
| COCC(Oc1ccc2c(-c3ccccc3Cl)cc(=O)oc2c1)C(=O)N(C)C (single isomer, unassigned) [Example 93, 2-((4-(2-chlorophenyl)-2-oxo-2H-chromen-7-yl)oxy)-3-methoxy-N,N-dimethylpropanamide] | 18000 |
| COCC(Oc1ccc2c(-c3ccccc3Cl)cc(=O)oc2c1)C(=O)N(C)C (single isomer, unassigned) [Example 94, 2-((4-(2-chlorophenyl)-2-oxo-2H-chromen-7-yl)oxy)-3-methoxy-N,N-dimethylpropanamide] | 90 |
| COCC(Oc1ccc2c(-c3ccccc3Cl)cc(=O)oc2c1)C(N)=O (single isomer, unassigned) [Example 95, 2-((4-(2-chlorophenyl)-2-oxo-2H-chromen-7-yl)oxy)-3-methoxypropanamide] | 14000 |
| COCC(Oc1ccc2c(-c3ccccc3Cl)cc(=O)oc2c1)C(N)=O (single isomer, unassigned) [Example 96, 2-((4-(2-chlorophenyl)-2-oxo-2H-chromen-7-yl)oxy)-3-methoxypropanamide] | 500 |
| CNC(=O)C(CO)Oc1ccc2c(-c3ccccc3C)cc(=O)oc2c1 (single isomer, unassigned) [Example 97, 3-hydroxy-N-methyl-2-[4-(o-tolyl)-2-oxo-chromen-7-yl]oxy-propanamide] | 5000 |
| CNC(=O)C(CO)Oc1ccc2c(-c3ccccc3C)cc(=O)oc2c1 (single isomer, unassigned) [Example 98, 3-hydroxy-N-methyl-2-[4-(o-tolyl)-2-oxo-chromen-7-yl]oxy-propanamide] | > 100000 |
| Cc1ccccc1-c1cc(=O)oc2cc(O)ccc12 [Example 01, 7-hydroxy-4-(o-tolyl)-2H-chromen-2-one] | 3000 |
| CCCOc1ccc2c(-c3ccccc3C)cc(=O)oc2c1 [Example 02, 7-propoxy-4-(o-tolyl)-2H-chromen-2-one] | 90 |
| Cc1ccccc1-c1cc(=O)oc2cc(OCCO)ccc12 [Example 03, 7-(2-hydroxyethoxy)-4-(o-tolyl)-2H-chromen-2-one] | 2000 |
| COc1ccc2c(-c3ccccc3C)cc(=O)oc2c1 [Example 04, 7-methoxy-4-(o-tolyl)-2H-chromen-2-one] | 2000 |
| Cc1ccccc1-c1cc(=O)oc2cc(OC(C)C)ccc12 [Example 05, 7-isopropoxy-4-(o-tolyl)-2H-chromen-2-one] | 100 |
| Cc1ccccc1-c1cc(=O)oc2cc(Oc3ccccc3)ccc12 [Example 06, 7-phenoxy-4-(o-tolyl)-2H-chromen-2-one] | 600 |
| Cc1ccccc1-c1cc(=O)oc2cc(OCCc3ccccc3)ccc12 [Example 07, 7-phenethoxy-4-(o-tolyl)-2H-chromen-2-one] | 4000 |
| Cc1ccccc1-c1cc(=O)oc2cc(OCCN(C)C)ccc12 [Example 08, 7-(2-(dimethylamino)ethoxy)-4-(o-tolyl)-2H-chromen-2-one] | 94000 |
| COCCOc1ccc2c(-c3ccccc3C)cc(=O)oc2c1 [Example 09, 7-(2-methoxyethoxy)-4-(o-tolyl)-2H-chromen-2-one] | 900 |
| CNC(=O)CCOc1ccc2c(-c3ccccc3C)cc(=O)oc2c1 [Example 12, N-methyl-3-((2-oxo-4-(o-tolyl)-2H-chromen-7-yl)oxy)propanamide] | 7000 |

| SMILES | IC50 [nM] |
| --- | --- |
| O=c1cc(-c2ccc(F)cc2Cl)c2ccc(O)cc2o1 [Example 13, 4-(2-chloro-4-fluorophenyl)-7-hydroxy-2H-chromen-2-one] | 3000 |
| COCC(Oc1ccc2c(-c3ccc(F)cc3Cl)cc(=O)oc2c1)C(=O)OC (centres unmarked) [Example 14, methyl 2-((4-(2-chloro-4-fluorophenyl)-2-oxo-2H-chromen-7-yl)oxy)-3-methoxypropanoate] | 200 |
| O=C([C@@H](CO)Oc1ccc2c(-c3ccc(F)cc3Cl)cc(=O)oc2c1)N1CCCCC1 [Example 15, (R)-4-(2-chloro-4-fluorophenyl)-7-((3-hydroxy-1-oxo-1-(piperidin-1-yl)propan-2-yl)oxy)-2H-chromen-2-one] | 400 |
| Cc1cc(O)cc2oc(=O)cc(-c3ccc(F)cc3)c12 [Example 16, 4-(4-fluorophenyl)-7-hydroxy-5-methyl-2H-chromen-2-one] | > 100000 |
| Cc1cc(O[C@H](C)C(=O)N2CCCCC2)cc2oc(=O)cc(-c3ccc(F)cc3)c12 [Example 19, 4-(4-fluorophenyl)-5-methyl-7-[(1R)-1-methyl-2-oxo-2-(1-piperidyl)ethoxy]chromen-2-one] | 500 |
| Cc1cc(O[C@H](C)C(=O)N(C)C)cc2oc(=O)cc(-c3ccc(F)cc3)c12 [Example 20, (R)-2-((4-(4-fluorophenyl)-5-methyl-2-oxo-2H-chromen-7-yl)oxy)-N,N-dimethylpropanamide] | 2000 |
| COc1ccc2c(-c3ccc(F)cc3Cl)cc(=O)oc2c1 [Example 21, 4-(2-chloro-4-fluorophenyl)-7-methoxy-2H-chromen-2-one] | 4000 |
| Cc1cc(O)cc2oc(=O)cc(-c3ccccc3)c12 [Example 22, 7-hydroxy-5-methyl-4-phenyl-2H-chromen-2-one] | 34000 |
| Cc1cc(OC(C)C)cc2oc(=O)cc(-c3ccccc3)c12 [Example 23, 7-isopropoxy-5-methyl-4-phenyl-2H-chromen-2-one] | 87000 |
| Cc1cc(OCC(C)C)cc2oc(=O)cc(-c3ccccc3)c12 [Example 24, 7-isobutoxy-5-methyl-4-phenyl-2H-chromen-2-one] | 93000 |
| Cc1ccccc1-c1cc(=O)oc2cc(OC3CCOCC3)ccc12 [Example 28, 7-((tetrahydro-2H-pyran-4-yl)oxy)-4-(o-tolyl)-2H-chromen-2-one] | 500 |
| Cc1ccccc1-c1cc(=O)oc2cc(OCC3CCOCC3)ccc12 [Example 29, 7-((tetrahydro-2H-pyran-4-yl)methoxy)-4-(o-tolyl)-2H-chromen-2-one] | 1000 |
| CCCOc1ccc2c(-c3ccccc3C(F)(F)F)cc(=O)oc2c1 [Example 30, 7-propoxy-4-(2-(trifluoromethyl)phenyl)-2H-chromen-2-one] | 1000 |
| CCCOc1ccc2c(-c3ccc(F)cc3Cl)cc(=O)oc2c1 [Example 31, 4-(2-chloro-4-fluorophenyl)-7-propoxy-2H-chromen-2-one] | 200 |
| CCCOc1ccc2c(-c3cnccc3C(F)(F)F)cc(=O)oc2c1 [Example 32, 7-propoxy-4-(4-(trifluoromethyl)pyridin-3-yl)-2H-chromen-2-one] | 23000 |
| CCCOc1ccc2c(-c3cscc3C)cc(=O)oc2c1 [Example 33, 4-(4-methylthiophen-3-yl)-7-propoxy-2H-chromen-2-one] | 200 |
| CCCOc1ccc2c(-c3ccc(O)cc3C)cc(=O)oc2c1 [Example 34, 4-(4-hydroxy-2-methylphenyl)-7-propoxy-2H-chromen-2-one] | 4000 |
